Measured values: patent US20230064292A1, “METHODS OF TREATING PSMA-POSITIVE CANCER USING RADIONUCLIDE THERAPY” (priority 2020, published 2023)

How the values were obtained:
[1] = Kidney dosimetry by SPECT/CT or SPECT/MRI in patients; assay type: in vivo, human
Source text: CTT1403 localization in various organs is accomplished by estimating dosimetry using SPECT/CT or SPECT/MRI imaging of the radioisotope component (using the gamma particle emission) of CTT1403, ^177Lu, up to 8 days after the first dose. […] Preclinical studies in rats with CTT1403 identified the kidneys as the dose limiting organ. Table 2, below, summarizes kidney dosimetry calculated from the first 15 patients enrolled in the study after receipt of escalating doses of CTT1403 and contrasts it with the predicted kidney exposure from rat studies. […] Preclinical studies in rats estimated expected kidney exposure of ˜5.2 Gy/GBq. […] CTT1403 may be sequestered in tumors and under exposing the kidney.

[2] = test system: prostate specific antigen (PSA); assay: PSA levels in patients after CTT1403 administration; assay type: in vivo, human
Protocol: In order to investigate the pharmacokinetics of CTT1403, doses were administered by IV to fifteen subjects. The subjects each had histologically confirmed prostate adenocarcinoma that was metastatic and castration resistant (mCRPA). Subjects with de novo small cell carcinoma of the prostate were excluded. The subjects further had at least three metastatic foci avid for PSMA-specific PET agent CTT1057 or 68Ga-PSMA-11 uptake. PSMA avidity was defined as SUVmax>mediastinal blood pool. The subjects had received docetaxel, were ineligible for docetaxel, or had refused docetaxel. They all further had progression by the PCWG3 criteria during or after treatment with abiraterone, enzalutamide, and/or apalutamide, and had serum testosterone<50 ng/dL. Subjects without a history of bilateral orchiectomy were required to remain on a luteinizing hormone-releasing hormone (LHRH) analog during the course of the protocol therapy.
Reduction in prostate specific antigen (PSA) at least 12 weeks after therapeutic administration is generally thought to be predictive of therapeutic efficacy. PSA levels at screening, at CTT1403 administration and at specified time points after CTT1403 administration are shown for selected patients enrolled in the trial, including patients still actively under observation (Patients 13, 14, 15). Reduction in PSA compared to Cycle 1, Day 1 has been observed in 4 patients to date: Patient 002 (75% maximum reduction), Patient 4 (40% maximum reduction), Patient 13 (14% reduction to date) and Patient 15 (9% reduction to date).

[3] = Physical examination and monitoring for adverse events in the clinical trial; assay type: in vivo, human; conditions: to date
[4] = test system: PSMA-expressing PC3-PIP cells; assay: Cellular uptake and internalization in PSMA-expressing PC3-PIP cells; assay type: cell-based
Source text: The PSMA binding scaffold of PSMA binds irreversibly to the extracellular enzymatic domain of PSMA leading to rapid internalization by PSMA-expressing cancer cells. Tumor cell uptake of CTT1403 is ˜84% after just 2½ hours (FIG. 1), compared to less than 40% tumor cell uptake of ^177Lu-PSMA-617 (structure shown below), in PSMA-expressing PC3-PIP cells.
Given that 99% of cell bound CTT1403 is internalized, compared to just 15% of ^177Lu-PSMA-617, targeting by CTT1403 is expected to confer a significant therapeutic advantage. This greater uptake will allow treatment of smaller tumors for a longer time. Both irreversible binding and cellular internalization increases exposure of target tissue to the therapeutic agent. Greater accumulation in the target tissue will permit a lower efficacious dose and/or dosing frequency, thus reducing a patient's total clinical exposure to the radionuclide and improving the therapeutic index.

[5] = patient 1, injected activity 0.73 GBq (19.6 mCi)
[6] = patient 2, injected activity 1.50 GBq (40.5 mCi)
[7] = patient 3, injected activity 2.03 GBq (54.8 mCi)
[8] = patient 4, injected activity 3.00 GBq (81.1 mCi)
[9] = patient 5, injected activity 2.95 GBq (79.8 mCi)
[10] = patient 6, injected activity 2.98 GBq (80.5 mCi)
[11] = patient 7, injected activity 4.48 GBq (121.1 mCi)
[12] = patient 8, injected activity 4.52 GBq (122.2 mCi)
[13] = patient 9, injected activity 3.53 GBq (95.5 mCi)
[14] = patient 10, injected activity 4.48 GBq (121.2 mCi)
[15] = patient 11, injected activity 5.66 GBq (153.0 mCi)
[16] = patient 12, injected activity 5.99 GBq (162.0 mCi)
[17] = patient 13, injected activity 5.99 GBq (162.0 mCi)
[18] = patient 14, injected activity 7.98 GBq (215.7 mCi)
[19] = patient 15, injected activity 7.77 GBq (210.0 mCi)

## O=C(O)CC[C@H](NP(=O)(O)OCCC[C@H](NC(=O)CC[C@H](NC(=O)CCCCCNC(=O)CCC(NC(=O)CCOCCOCCOCCOCCNC(=O)CCC(=O)N1Cc2ccccc2-c2c(nnn2CCCNC(=O)CN2CCN3CCN4CCN(CC2)CC(=O)[O][177Lu]([O]C(=O)C3)[O]C(=O)C4)-c2ccccc21)C(=O)NC(CCCCNC(=O)CCCc1ccc(I)cc1)C(=O)O)C(=O)O)C(=O)O)C(=O)O (stereo partly shown) [CTT1403]
[1]; CTT1403 (7.5 GBq +/− 10%)
  Kidney dose, Dose Gy/GBq: 0.689 Gy/GBq
  Kidney dose, Mean Dose (Gy): 4.895 Gy
[1]; first 15 patients enrolled, escalating doses
  Kidney dosimetry calculated from the first 15 patients: 0.687 Gy/GBq
[1]; first 15 patients vs rat prediction
  factor by which clinical kidney dosimetry is lower than predicted by rat studies: ~10
[1]; [5]
  absorbed dose (Gy) - L. kidney: 0.441 Gy
  absorbed dose (Gy) - R. kidney: 0.430 Gy
  absorbed dose per GBq (Gy/GBq) - L. kidney: 0.608 Gy/GBq
  absorbed dose per GBq (Gy/GBq) - R. kidney: 0.593 Gy/GBq
[1]; [6]
  absorbed dose (Gy) - L. kidney: 0.915 Gy
  absorbed dose (Gy) - R. kidney: 0.876 Gy
  absorbed dose per GBq (Gy/GBq) - L. kidney: 0.610 Gy/GBq
  absorbed dose per GBq (Gy/GBq) - R. kidney: 0.584 Gy/GBq
[1]; [7]
  absorbed dose (Gy) - L. kidney: 1.54 Gy
  absorbed dose (Gy) - R. kidney: 2.07 Gy
  absorbed dose per GBq (Gy/GBq) - L. kidney: 0.757 Gy/GBq
  absorbed dose per GBq (Gy/GBq) - R. kidney: 1.020 Gy/GBq
[1]; [8]
  absorbed dose (Gy) - L. kidney: 1.97 Gy
  absorbed dose (Gy) - R. kidney: 1.70 Gy
  absorbed dose per GBq (Gy/GBq) - L. kidney: 0.655 Gy/GBq
  absorbed dose per GBq (Gy/GBq) - R. kidney: 0.565 Gy/GBq
[1]; [9]
  absorbed dose (Gy) - L. kidney: 4.41 Gy
  absorbed dose (Gy) - R. kidney: 4.84 Gy
  absorbed dose per GBq (Gy/GBq) - L. kidney: 1.494 Gy/GBq
  absorbed dose per GBq (Gy/GBq) - R. kidney: 1.638 Gy/GBq
[1]; [10]
  absorbed dose (Gy) - L. kidney: 2.75 Gy
  absorbed dose (Gy) - R. kidney: 2.65 Gy
  absorbed dose per GBq (Gy/GBq) - L. kidney: 0.922 Gy/GBq
  absorbed dose per GBq (Gy/GBq) - R. kidney: 0.889 Gy/GBq
[1]; [11]
  absorbed dose (Gy) - L. kidney: 2.54 Gy
  absorbed dose (Gy) - R. kidney: 2.83 Gy
  absorbed dose per GBq (Gy/GBq) - L. kidney: 0.567 Gy/GBq
  absorbed dose per GBq (Gy/GBq) - R. kidney: 0.632 Gy/GBq
[1]; [12]
  absorbed dose (Gy) - L. kidney: 3.45 Gy
  absorbed dose (Gy) - R. kidney: 3.54 Gy
  absorbed dose per GBq (Gy/GBq) - L. kidney: 0.764 Gy/GBq
  absorbed dose per GBq (Gy/GBq) - R. kidney: 0.784 Gy/GBq
[1]; [13]
  absorbed dose (Gy) - L. kidney: 1.71 Gy
  absorbed dose (Gy) - R. kidney: 1.85 Gy
  absorbed dose per GBq (Gy/GBq) - L. kidney: 0.484 Gy/GBq
  absorbed dose per GBq (Gy/GBq) - R. kidney: 0.522 Gy/GBq
[1]; [14]
  absorbed dose (Gy) - L. kidney: 2.26 Gy
  absorbed dose (Gy) - R. kidney: 2.75 Gy
  absorbed dose per GBq (Gy/GBq) - L. kidney: 0.505 Gy/GBq
  absorbed dose per GBq (Gy/GBq) - R. kidney: 0.612 Gy/GBq
[1]; [15]
  absorbed dose (Gy) - L. kidney: 3.32 Gy
  absorbed dose (Gy) - R. kidney: 3.08 Gy
  absorbed dose per GBq (Gy/GBq) - L. kidney: 0.587 Gy/GBq
  absorbed dose per GBq (Gy/GBq) - R. kidney: 0.543 Gy/GBq
[1]; [16]
  absorbed dose (Gy) - L. kidney: 3.15 Gy
  absorbed dose (Gy) - R. kidney: 2.81 Gy
  absorbed dose per GBq (Gy/GBq) - L. kidney: 0.525 Gy/GBq
  absorbed dose per GBq (Gy/GBq) - R. kidney: 0.469 Gy/GBq
[1]; [17]
  absorbed dose (Gy) - L. kidney: 2.65 Gy
  absorbed dose (Gy) - R. kidney: 2.50 Gy
  absorbed dose per GBq (Gy/GBq) - L. kidney: 0.443 Gy/GBq
  absorbed dose per GBq (Gy/GBq) - R. kidney: 0.417 Gy/GBq
[1]; [18]
  absorbed dose (Gy) - L. kidney: 5.53 Gy
  absorbed dose (Gy) - R. kidney: 5.41 Gy
  absorbed dose per GBq (Gy/GBq) - L. kidney: 0.693 Gy/GBq
  absorbed dose per GBq (Gy/GBq) - R. kidney: 0.678 Gy/GBq
[1]; [19]
  absorbed dose (Gy) - L. kidney: 4.89 Gy
  absorbed dose (Gy) - R. kidney: 3.75 Gy
  absorbed dose per GBq (Gy/GBq) - L. kidney: 0.629 Gy/GBq
  absorbed dose per GBq (Gy/GBq) - R. kidney: 0.482 Gy/GBq
[2]; Patient 002, maximum reduction
  Reduction in PSA compared to Cycle 1, Day 1: 75%
[2]; Patient 4, maximum reduction
  Reduction in PSA compared to Cycle 1, Day 1: 40%
[2]; Patient 13, reduction to date
  Reduction in PSA compared to Cycle 1, Day 1: 14%
[2]; Patient 15, reduction to date
  Reduction in PSA compared to Cycle 1, Day 1: 9%
[2]; patient 2 (1.50 GBq), 4 Weeks Post Treatment
  PSA Result: 405.6 µg/L
[2]; patient 2 (1.50 GBq), 8 Weeks Post Treatment
  PSA Result: 167.013 µg/L
[2]; patient 2 (1.50 GBq), 12 Weeks Post Treatment
  PSA Result: 45.716 µg/L
[2]; patient 2 (1.50 GBq), Cycle 1-Day 1
  PSA Result: 162.353 µg/L
[2]; patient 2 (1.50 GBq), Cycle 1-Day 22
  PSA Result: 185.132 µg/L
[2]; patient 2 (1.50 GBq), Cycle 2-Day 1
  PSA Result: 194.320 µg/L
[2]; patient 2 (1.50 GBq), End of Treatment
  PSA Result: 215.919 µg/L
[2]; patient 4 (3.00 GBq), 8 Weeks Post Treatment
  PSA Result: 41.80 µg/L
[2]; patient 4 (3.00 GBq), Cycle 1-Day 1
  PSA Result: 65.684 µg/L
[2]; patient 4 (3.00 GBq), Cycle 1-Day 22
  PSA Result: 77.876 µg/L
[2]; patient 4 (3.00 GBq), End of Treatment
  PSA Result: 115.658 µg/L
[2]; patient 4 (3.00 GBq), Screening (before dosing)
  PSA Result: 70.228 µg/L
[2]; patient 13 (5.99 GBq), Cycle 1-Day 1
  PSA Result: 146.133 µg/L
[2]; patient 13 (5.99 GBq), Cycle 1-Day 22
  PSA Result: 148.217 µg/L
[2]; patient 13 (5.99 GBq), Cycle 2-Day 1
  PSA Result: 135.620 µg/L
[2]; patient 13 (5.99 GBq), Cycle 2-Day 22
  PSA Result: 126.392 µg/L
[2]; patient 13 (5.99 GBq), Screening (before dosing)
  PSA Result: 166.793 µg/L
[2]; patient 14 (7.98 GBq), Cycle 1-Day 1
  PSA Result: 22.642 µg/L
[2]; patient 14 (7.98 GBq), Cycle 1-Day 22
  PSA Result: 142 µg/L
[2]; patient 14 (7.98 GBq), Screening (before dosing)
  PSA Result: 16.310 µg/L
[2]; patient 15 (7.77 GBq), Cycle 1-Day 1
  PSA Result: 595.739 µg/L
[2]; patient 15 (7.77 GBq), Cycle 1-Day 22
  PSA Result: 543.5 µg/L
[2]; patient 15 (7.77 GBq), Screening (before dosing)
  PSA Result: 410.363 µg/L
[3]
  serious adverse events after receipt of CTT1403: no serious adverse events
[4]; PSMA-expressing PC3-PIP cells
  cell bound agent that is internalized: 99%
[4]; after 2½ hours, PSMA-expressing PC3-PIP cells (FIG. 1)
  Tumor cell uptake: ~84%
